In PubChem BioAssay AID1963841 (Molecular Pharmacology Branch, DTP, NCI, 2024):
pIC50: −log10 of the molar value.

System: 439559-082-T-J2-PDC spheroid viability
Test: Anticancer human tumor 439559-082-T-J2-PDC patient-derived colon adenocarcinoma cell line growth inhibition [POLQ]
Settings: spheroids with HUVEC and MSC; for pIC50: curve of first compound; for viability, T/C: stronger effect = lower value
In short: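 Growth inhibition in 3D: complex spheroids (tumor PDC, HUVEC, MSC) treated with POLQ inhibitor combinations; where Cmax unknown, highest tested concentration 10 microM, except SN-38 at 1 microM.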

[1] = second compound 0.0316 µM, first compound 0.0316 µM
[2] = second compound 0.0316 µM, first compound 0.1 µM
[3] = second compound 0.0316 µM, first compound 0.316 µM
[4] = second compound 0.0316 µM, first compound 1 µM
[5] = second compound 0.0316 µM, first compound 3.16 µM
[6] = second compound 0.0316 µM, first compound 10 µM
[7] = second compound 0.1 µM, first compound 0.0316 µM
[8] = second compound 0.1 µM, first compound 0.1 µM
[9] = second compound 0.1 µM, first compound 0.316 µM
[10] = second compound 0.1 µM, first compound 1 µM
[11] = second compound 0.1 µM, first compound 3.16 µM
[12] = second compound 0.1 µM, first compound 10 µM
[13] = second compound 0.316 µM, first compound 0.0316 µM
[14] = second compound 0.316 µM, first compound 0.1 µM
[15] = second compound 0.316 µM, first compound 0.316 µM
[16] = second compound 0.316 µM, first compound 1 µM
[17] = second compound 0.316 µM, first compound 3.16 µM
[18] = second compound 0.316 µM, first compound 10 µM
[19] = second compound 1 µM, first compound 0.0316 µM
[20] = second compound 1 µM, first compound 0.1 µM
[21] = second compound 1 µM, first compound 0.316 µM
[22] = second compound 1 µM, first compound 1 µM
[23] = second compound 1 µM, first compound 3.16 µM
[24] = second compound 1 µM, first compound 10 µM
[25] = second compound 3.16 µM, first compound 0.0316 µM
[26] = second compound 3.16 µM, first compound 0.1 µM
[27] = second compound 3.16 µM, first compound 0.316 µM
[28] = second compound 3.16 µM, first compound 1 µM
[29] = second compound 3.16 µM, first compound 3.16 µM
[30] = second compound 3.16 µM, first compound 10 µM
[31] = second compound 10 µM, first compound 0.0316 µM
[32] = second compound 10 µM, first compound 0.1 µM
[33] = second compound 10 µM, first compound 0.316 µM
[34] = second compound 10 µM, first compound 1 µM
[35] = second compound 10 µM, first compound 3.16 µM
[36] = second compound 10 µM, first compound 10 µM
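Further: spheroids exposed to compounds for seven days before readout.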
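Wherever viability, T/C is given: 100% = DMSO vehicle control viability.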

For COc1cccc2c1C(=O)c1c(O)c3c(c(O)c1C2=O)CC(O)(C(=O)CO)CC3OC1CC(N)C(O)C(C)O1 (stereo unspecified) + COC1C(OC(N)=O)C(O)C(Oc2ccc3c(O)c(NC(=O)c4ccc(O)c(CC=C(C)C)c4)c(=O)oc3c2C)OC1(C)C, the pIC50 (second compound 0.0316 µM) was 5.01, the pIC50 (second compound 0.1 µM) was < 5.00 and the pIC50 (second compound 0.316 µM) was 5.20. It also gave a pIC50 (second compound 1 µM) of 5.02, a pIC50 (second compound 3.16 µM) of 5.11 and a pIC50 (second compound 10 µM) of 5.11. For the same compound, the viability, T/C [1] was 94.1%, the viability, T/C [2] was 102% and the viability, T/C [3] was 88.1%. It also gave a viability, T/C [4] of 70%, a viability, T/C [5] of 64.5% and a viability, T/C [6] of 47.9%. For the same compound, the viability, T/C [7] was 105%, the viability, T/C [8] was 108% and the viability, T/C [9] was 82.9%. For the same compound, the viability, T/C [10] was 68.2%, the viability, T/C [11] was 59.9% and the viability, T/C [12] was 49.6%. For the same compound, the viability, T/C [13] was 97.7%, the viability, T/C [14] was 98.8% and the viability, T/C [15] was 77.3%. For the same compound, the viability, T/C [16] was 70.2%, the viability, T/C [17] was 59.7% and the viability, T/C [18] was 44.3%. It also gave a viability, T/C [19] of 98.8%, a viability, T/C [20] of 104% and a viability, T/C [21] of 84.7%. It also gave a viability, T/C [22] of 65.8%, a viability, T/C [23] of 56.1% and a viability, T/C [24] of 47.7%. For the same compound, the viability, T/C [25] was 104%, the viability, T/C [26] was 98.9% and the viability, T/C [27] was 85.2%. The viability, T/C [28] was 66.4%, the viability, T/C [29] was 61.8% and the viability, T/C [30] was 46.2%. It also gave a viability, T/C [31] of 95.3%, a viability, T/C [32] of 105% and a viability, T/C [33] of 85.9%. The viability, T/C [34] was 67.5%, the viability, T/C [35] was 61.4% and the viability, T/C [36] was 45.4%.
With O=C(Nc1ccc(O)c(NS(=O)(=O)c2ccc(F)cc2)c1)c1ccc(-c2ccccc2)cc1 + Cc1cccc(N(C)C(=O)C2C(O)CCN2c2nc(C)cc(C(F)(F)F)c2C#N)c1 the pIC50 (second compound 0.0316 µM) was < 5.00, the pIC50 (second compound 0.1 µM) was < 5.00 and the pIC50 (second compound 0.316 µM) was < 5.00. For the same compound, the pIC50 (second compound 1 µM) was < 5.00, the pIC50 (second compound 3.16 µM) was < 5.00 and the pIC50 (second compound 10 µM) was < 5.00. The viability, T/C [1] was 92%, the viability, T/C [2] was 119% and the viability, T/C [3] was 86.7%. It also gave a viability, T/C [4] of 97.3%, a viability, T/C [5] of 103% and a viability, T/C [6] of 102%. For the same compound, the viability, T/C [7] was 101%, the viability, T/C [8] was 106% and the viability, T/C [9] was 100%. It also gave a viability, T/C [10] of 98.6%, a viability, T/C [11] of 107% and a viability, T/C [12] of 99.8%. It also gave a viability, T/C [13] of 101%, a viability, T/C [14] of 108% and a viability, T/C [15] of 92.4%. It also gave a viability, T/C [16] of 96.7%, a viability, T/C [17] of 105% and a viability, T/C [18] of 118%. It also gave a viability, T/C [19] of 96.6%, a viability, T/C [20] of 93.6% and a viability, T/C [21] of 98.4%. The viability, T/C [22] was 97.7%, the viability, T/C [23] was 101% and the viability, T/C [24] was 115%. For the same compound, the viability, T/C [25] was 98.1%, the viability, T/C [26] was 93.7% and the viability, T/C [27] was 85.7%. The viability, T/C [28] was 104%, the viability, T/C [29] was 109% and the viability, T/C [30] was 99%. For the same compound, the viability, T/C [31] was 97.8%, the viability, T/C [32] was 84.6% and the viability, T/C [33] was 107%. For the same compound, the viability, T/C [34] was 86%, the viability, T/C [35] was 104% and the viability, T/C [36] was 109%.
In the case of O=c1[nH]cc(F)c(=O)[nH]1 + COC1C(OC(N)=O)C(O)C(Oc2ccc3c(O)c(NC(=O)c4ccc(O)c(CC=C(C)C)c4)c(=O)oc3c2C)OC1(C)C, the pIC50 (second compound 0.0316 µM) was < 5.00, the pIC50 (second compound 0.1 µM) was < 5.00 and the pIC50 (second compound 0.316 µM) was < 5.00. For the same compound, the pIC50 (second compound 1 µM) was < 5.00, the pIC50 (second compound 3.16 µM) was < 5.00 and the pIC50 (second compound 10 µM) was < 5.00. It also gave a viability, T/C [1] of 92.1%, a viability, T/C [2] of 94.8% and a viability, T/C [3] of 80.5%. It also gave a viability, T/C [4] of 74.8%, a viability, T/C [5] of 72.9% and a viability, T/C [6] of 70.1%. For the same compound, the viability, T/C [7] was 103%, the viability, T/C [8] was 99.7% and the viability, T/C [9] was 85.9%. For the same compound, the viability, T/C [10] was 72.3%, the viability, T/C [11] was 69.8% and the viability, T/C [12] was 70.1%. It also gave a viability, T/C [13] of 108%, a viability, T/C [14] of 97.5% and a viability, T/C [15] of 83.4%. The viability, T/C [16] was 74.1%, the viability, T/C [17] was 72.8% and the viability, T/C [18] was 66.8%. The viability, T/C [19] was 103%, the viability, T/C [20] was 96.7% and the viability, T/C [21] was 79.9%. It also gave a viability, T/C [22] of 75.5%, a viability, T/C [23] of 68.2% and a viability, T/C [24] of 66.9%. The viability, T/C [25] was 97.8%, the viability, T/C [26] was 98.3% and the viability, T/C [27] was 83.9%. For the same compound, the viability, T/C [28] was 73.2%, the viability, T/C [29] was 69.1% and the viability, T/C [30] was 61.6%. The viability, T/C [31] was 104%, the viability, T/C [32] was 88.9% and the viability, T/C [33] was 80.9%. It also gave a viability, T/C [34] of 69.7%, a viability, T/C [35] of 70.1% and a viability, T/C [36] of 64.3%.
